Source: PubChem BioAssay (NCI)
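Tested at 5 concentrations; 48 h exposure; 96-well plates; endpoints linearly interpolated, else capped at highest concentration. GI50 marks 50% less growth. At the TGI there is no net growth.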

Key:
Assay in all cases: DTP human tumour cell line panel, 48 h
[1] = tested on: HCT-15 colon
[2] = tested on: HL-60(TB) leukemia
[3] = tested on: A549 NSCLC
[4] = tested on: SK-MEL-2 melanoma
[5] = tested on: OVCAR-5 ovarian
[6] = tested on: M14 melanoma
[7] = tested on: OVCAR-3 ovarian
[8] = tested on: PC-3 prostate
[9] = tested on: HT29 colon
[10] = tested on: NCI/ADR-RES ovarian
[11] = tested on: SK-MEL-28 melanoma
[12] = tested on: U251 CNS
[13] = tested on: SK-OV-3 ovarian
[14] = tested on: MCF7 breast
[15] = tested on: SF-268 CNS
[16] = tested on: 786-0 renal
[17] = tested on: HCT-116 colon
[18] = tested on: KM12 colon
[19] = tested on: NCI-H226 lung
[20] = tested on: SW-620 colon
[21] = tested on: OVCAR-8 ovarian
[22] = tested on: K-562 leukemia
[23] = tested on: SN12C renal
[24] = tested on: HS 578T breast
[25] = tested on: SK-MEL-5 melanoma
[26] = tested on: SNB-75 CNS
[27] = tested on: NCI-H522 lung
[28] = tested on: UO-31 renal
[29] = tested on: CAKI-1 renal
[30] = tested on: UACC-257 melanoma
[31] = tested on: CCRF-CEM leukemia
[32] = tested on: COLO 205 colon
[33] = tested on: MDA-MB-435
[34] = tested on: BT-549 breast
[35] = tested on: HOP-62 NSCLC
[36] = tested on: LOX IMVI melanoma
[37] = tested on: SF-295 CNS
[38] = tested on: SF-539 CNS
[39] = tested on: IGROV1 ovarian
[40] = tested on: MOLT-4 leukemia
[41] = tested on: RXF 393 renal
[42] = tested on: ACHN renal
[43] = tested on: MDA-MB-231 breast
[44] = tested on: A498 renal
[45] = tested on: RPMI-8226 leukemia
[46] = tested on: SR leukemia
[47] = tested on: HCC-2998 colon
[48] = tested on: UACC-62 melanoma
[49] = tested on: DU-145 prostate
[50] = tested on: NCI-H460 lung
[51] = tested on: OVCAR-4 ovarian
[52] = tested on: SNB-19 CNS

For `COc1ccc(C(=O)c2sc3nc(-c4cccs4)ccc3c2N)cc1OC`, the GI50 [1] was 2.81 µM, the TGI [1] was > 100 µM and the GI50 [2] was 4.14 µM. The TGI [2] was > 100 µM, the GI50 [3] was 4.71 µM and the TGI [3] was > 100 µM. It also gave a GI50 [4] of 3.29 µM, a TGI [4] of 19.2 µM and a GI50 [5] of 19.8 µM. For the same compound, the TGI [5] was > 100 µM, the GI50 [6] was 4.27 µM and the TGI [6] was > 100 µM. The GI50 [7] was 6.78 µM, the TGI [7] was > 100 µM and the GI50 [8] was 3.65 µM. The TGI [8] was > 100 µM, the GI50 [9] was 3.65 µM and the TGI [9] was 17.4 µM. The GI50 [10] was 3.61 µM, the TGI [10] was > 100 µM and the GI50 [11] was 4.98 µM. The TGI [11] was 70.4 µM, the GI50 [12] was 7.78 µM and the TGI [12] was > 100 µM. The GI50 [13] was 51.9 µM, the TGI [13] was > 100 µM and the GI50 [14] was 2.79 µM. The TGI [14] was > 100 µM, the GI50 [15] was 8.33 µM and the TGI [15] was > 100 µM. The GI50 [16] was 62.4 µM, the TGI [16] was > 100 µM and the GI50 [17] was 5.06 µM. For the same compound, the TGI [17] was > 100 µM, the GI50 [18] was 4.42 µM and the TGI [18] was > 100 µM. For the same compound, the GI50 [19] was 17.9 µM, the TGI [19] was > 100 µM and the GI50 [20] was 5.07 µM. For the same compound, the TGI [20] was > 100 µM, the GI50 [21] was 5.56 µM and the TGI [21] was > 100 µM. For the same compound, the GI50 [22] was 2.1 µM, the TGI [22] was > 100 µM and the GI50 [23] was 11 µM. For the same compound, the TGI [23] was > 100 µM, the GI50 [24] was 6.27 µM and the TGI [24] was > 100 µM. It also gave a GI50 [25] of 2.01 µM, a TGI [25] of 5.28 µM and a GI50 [26] of 4.06 µM. The TGI [26] was > 100 µM, the GI50 [27] was 2.86 µM and the TGI [27] was 95.8 µM. For the same compound, the GI50 [28] was 4.56 µM, the TGI [28] was > 100 µM and the GI50 [29] was 5.29 µM. For the same compound, the TGI [29] was > 100 µM, the GI50 [30] was 8.51 µM and the TGI [30] was > 100 µM. For the same compound, the GI50 [31] was 4.53 µM, the TGI [31] was > 100 µM and the GI50 [32] was 5.35 µM. For the same compound, the TGI [32] was > 100 µM, the GI50 [33] was 1.43 µM and the TGI [33] was 4.76 µM. The GI50 [34] was 3.82 µM, the TGI [34] was > 100 µM and the GI50 [35] was 17.6 µM. For the same compound, the TGI [35] was > 100 µM, the GI50 [36] was 6.73 µM and the TGI [36] was > 100 µM. It also gave a GI50 [37] of 3.07 µM, a TGI [37] of 18.2 µM and a GI50 [38] of 5.32 µM. The TGI [38] was > 100 µM, the GI50 [39] was 7.72 µM and the TGI [39] was > 100 µM. It also gave a GI50 [40] of 3.78 µM, a TGI [40] of 18 µM and a GI50 [41] of 9.98 µM. The TGI [41] was > 100 µM, the GI50 [42] was 9.26 µM and the TGI [42] was > 100 µM. For the same compound, the GI50 [43] was 2.96 µM, the TGI [43] was 29.6 µM and the GI50 [44] was 2 µM. The TGI [44] was > 100 µM, the GI50 [45] was 5.45 µM and the TGI [45] was > 100 µM. For the same compound, the GI50 [46] was 3.26 µM, the TGI [46] was 22.7 µM and the GI50 [47] was 26.2 µM. The TGI [47] was > 100 µM, the GI50 [48] was 6.47 µM and the TGI [48] was > 100 µM. The GI50 [49] was 16 µM, the TGI [49] was > 100 µM and the GI50 [50] was 3.88 µM. For the same compound, the TGI [50] was > 100 µM, the GI50 [51] was 6.75 µM and the TGI [51] was > 100 µM. The GI50 [52] was > 100 µM and the TGI [52] was > 100 µM.
